# Source: patent US5100879A, “Method of topically cleansing the human body” (K.K. Ueno Seiyaku Oyo Kenkyujo, priority 1987, dated 1992)
# Like-named read-outs stand apart in the source and are kept apart here.
# Tests used:
# MT-4 cells = experiment: Cytotoxicity, MT-4 cells cultured without virus (Examples 4 and 8); type: cell-based, human
# Source text: The cell:virus ratio was 500:1. […] The infected cells were distinguished from the uninfected cells by an indirect immuno-fluorescence method. Thus, the cultured cells were fixed with cold methanol on a slide glass, reacted with antibody to the HTLV-III-specific antigens, and further with the secondary antibody (having a fluororescent label). […] The cell growth is indicated in number of cells, the viability (%) in number of viable cells ×100/number of total cells, and the infected cell rate (%) in number of fluorescent-positive cells x 100/number of total cells.
# [1] = test system: reverse transciptase of simian sarcoma virus; settings: Cancer Research, 38, 2401 2407; cited from earlier work
# HTLV-III [2] = experiment: Anti-AIDS activity, infected cell rate of MT-4 cells infected with HTLV-III at the 6th day (Example 9); type: cell-based; settings: for Infected cell (%): 6th day, control without test substance 100%; for anti-AIDS virus activity, in words: Example 9
# Description: (§1) To MT-4 cells (30×10^4 /ml) cultured in RPMI-1640 medium containing 10% bovine serum, was inoculated HTLV-III, and the suspension was incubated at 37° C. for 1 hour to cause the adsorption of the virus. The cell:virus ratio was 500:1. The cells were then washed, and cultured with or without various doses of the test substances (same as those of Example 1) at 37° C. under 5% CO2 for 3 days, after which cell growth, viability, and percentage of infected cells were recorded. The infected cells were distinguished from the uninfected cells by an indirect immuno-fluorescence method. Thus, the cultured cells were fixed with cold methanol on a slide glass, reacted with antibody to the HTLV-III-specific antigens, and further with the secondary antibody (having a fluororescent label). The results are shown in FIGS. 9-29, wherein, .gradient., .increment. and .quadrature. show the controls without virus, and show the infection experiments with HTLV-III. The cell growth is indicated in number of cells, the viability (%) in number of viable cells ×100/number of total cells, and the infected cell rate (%) in number of fluorescent-positive cells x 100/number of total cells.
# In order to examine the correlation between the anti-AIDS virus activity and the molecular structure (especially, molecular weight and S-content or number of sulfate group in this case) of various test substances including those used in Examples 1-7, the anti-AIDS activities were evaluated for the various naturally occurring polysaccharides, polysaccharides having a sulfate group, mucopolysaccharides, mucopolysaccharide sulfate, and mucopolysaccharide polysulfate. Further, similar experiments were carried out with various other sulfates which were synthetically obtained. The experimental procedures employed are identical to that in the preceding experiments. The cultured MT-4 cells were infected with HTLV-III and the inhibitory effects of various test substances on the infected cell rate (number of fluorescent cell×100/ total cell, %) were determined at the 6th day.
# HTLV-III [3] = experiment: Anti-AIDS virus activity, MT-4 cells infected with HTLV-III, 3 days (Examples 3, 6, 7); type: cell-based; settings: increasing dose
# Description: as §1
# Test substances were assayed for the anti-AIDS virus activity in the same manner as in Example 3 using cell culture. […]
# The anti-AIDS virus activity of heparin was evaluated in the same manner as in Example 3. […]
# [4] = test system: DNA polymerase of phytohemagglutinin stimulated human lymphocytes; settings: Cancer Research, 38, 2401 2407; cited from earlier work
# mice = settings: cited from earlier work
# [5] = test system: reverse transcriptase (authentic sample) derived from Avian Myeloblastosis Virus; experiment: Inhibition of reverse transcriptase activity (AMV), Examples 1 and 5; type: biochemical; settings: FIGS. 30-33
# Description: Test substances were assayed for inhibition against the enzyme activity of reverse transcriptase (authentic sample) derived from Avian Myeloblastosis Virus (abbrev. AMV), a kind of retrovirus. Five microliters of […] (template RNA), 4 μl of (dT)12-18 (primer DNA), and 1 μl of water were mixed with 5 μl of 0.5M Tris-HCl (pH 8.4) including 0.1% triton X-100, 5 μl of […], 5 μl of 20 […], 5 μl of water, and [^3 H]-TTP (tritium labeled thymidine triphosphate). To this mixture, test substances in solutions (final concentrations: 1, 0.1, and 0.01 μg/ml, 5 μl) or buffer solutions (control, 5 μl) at various doses were added. Then, 5 μl (one unit) of the authentic reverse transcriptase derived from AMV was added and the reaction mixture was incubated at 37° C. for 30 minutes. The reaction was stopped by addition of trichloroacetic acid, and after filtering the reaction mixture, the radioactivity of the polymerized (3H-T)n retained on the filter was measured using a liquid scintilation counter. As the test substances, sodium dextran sulfate (molecular weight: 5000), same (molecular weight: 8000), same (molecular weight: 500000), fucoidin, κ-carrageenan, λ-carrageenan, and .iota.-carrageenan were used.
# The effects of the test substances on the reverse transcriptase activity of AMV were evaluated by the method described in Example 1.
# [6] = test system: Friend leukemia virus (F-MuLV); experiment: Anti-Friend leukemia virus activity, XC-plaque assay, Procedure 2; type: cell-based; settings: for Number of plaques per dish: control 35
# Description: (§2) Anti-FMuLV activity of dextran sulfate (molecular weight: 7000-8000, S-content: 17-20%) was determined by a XC-plaque assay method. BALB3T3 cells were cultured in adhesive form in a 35 mm-dish at 5×10^4 cells/dish (2 ml). After removing the culture medium, a fresh medium with or without indicated concentrations of the test substance (1 ml each) and 0.2 ml of the virus preparation were charged, and the cells were cultured overnight. On the following day, the culture media were replaced with those (2 ml) containing or not containing the above substances, the incubation was continued for three additional days to progress the infection and replication of the virus. After the removal of the medium, the further progression of viral replication was stopped by UV irradiation. To this dish, the suspension of XC-cells (2 ml) was added and cultured for three days and the plaque formation produced by the virus particle induced cell-fusion, was observed.
# Procedure 1 was repeated except that after adsorption of the virus in the medium without DS, the non-adsorbed viruses were removed and the culture was carried out in the medium (2 ml) containing or not containing DS.
# [7] = test system: Friend leukemia virus (F-MuLV); experiment: Anti-Friend leukemia virus activity, XC-plaque assay, Procedure 1; type: cell-based; settings: for Number of plaques per dish: control 168
# Description: as §2
# [8] = test system: disrupted HTLV-III virions as a crude reverse transcriptase; experiment: Inhibition of reverse transcriptase activity (HTLV-III), Example 2; type: biochemical; settings: FIG. 8
substance,measurement,setting,value
Heparin,"cytotoxicity to MT-4 cells, in words",MT-4 cells,little cytotoxicity
same,inhibition of reverse transciptase of simian sarcoma virus in vitro,[1],inhibit
same,Infected cell (%),HTLV-III [2]; 10 μg/ml,41%
same,Infected cell (%),HTLV-III [2]; 100 μg/ml,1%
same,"anti-AIDS virus activity, in words",HTLV-III [2],particularly strong
same,cell growth (number of cells) and viability of MT-4 cells infected with HTLV-III,HTLV-III [3],the number of cells and viability were maintained to that of control
same,"infected cell rate (%) of MT-4 cells infected with HTLV-III, in words",HTLV-III [3],less susceptible to the viral infection
same,inhibition of DNA polymerase of phytohemagglutinin stimulated human lymphocytes in vitro,[4],inhibit
same,acute toxicity (LD50),mice; intravenously,"1,500-2,000 mg/kg"
Keratan polysulfate,Infected cell (%),HTLV-III [2]; 10 μg/ml,80%
same,Infected cell (%),HTLV-III [2]; 100 μg/ml,40%
same,reverse transcriptase inhibitory activity compared with the natural substances,[5],stronger activity
"dextran sulfate [Dextran sulfate 7,000-8,000]",Viability,"MT-4 cells; 1 μg/ml, without virus, 0 μg/ml gives 87",90%
same,Inhibition (%),"[6]; Procedure 2, 0.01 μg/ml",6%
same,Number of plaques per dish,"[6]; Procedure 2, 0.01 μg/ml",33 per dish
same,Inhibition (%),"[6]; Procedure 2, 0.1 μg/ml",45%
same,Number of plaques per dish,"[6]; Procedure 2, 0.1 μg/ml",19 per dish
same,Number of plaques per dish,"[6]; Procedure 2, 1 μg/ml",14 per dish
same,Inhibition (%),"[6]; Procedure 2, 10 μg/ml",52%
same,Number of plaques per dish,"[6]; Procedure 2, 10 μg/ml",17 per dish
same,Inhibition (%),"[6]; Procedure 2, 100 μg/ml",54%
same,Number of plaques per dish,"[6]; Procedure 2, 100 μg/ml",16 per dish
same,Number of plaques per dish,"[6]; Procedure 2, 500 μg/ml",0 per dish
same,Inhibition (%),"[7]; Procedure 1, 1 μg/ml",92%
same,Number of plaques per dish,"[7]; Procedure 1, 1 μg/ml",14 per dish
same,Inhibition (%),"[7]; Procedure 1, 5 μg/ml",93%
same,Number of plaques per dish,"[7]; Procedure 1, 5 μg/ml",12 per dish
same,Inhibition (%),"[7]; Procedure 1, 10 μg/ml",93%
same,Number of plaques per dish,"[7]; Procedure 1, 10 μg/ml",11 per dish
same,Inhibition (%),"[7]; Procedure 1, 50 μg/ml",92%
same,Number of plaques per dish,"[7]; Procedure 1, 50 μg/ml",13 per dish
same,Inhibition (%),"[7]; Procedure 1, 100 μg/ml",96%
same,Number of plaques per dish,"[7]; Procedure 1, 100 μg/ml",6 per dish
same,Inhibition (%),"[7]; Procedure 1, 1000 μg/ml",100%
same,inhibition of the formation of plaque,"[7]; Procedure 1, concentrations of 1-100 μg/ml",≥ 90%
same,inhibitory effect against the reverse transcriptase derived from HTLV-III,[8],has an inhibitory effect
same,Infected cell (%),HTLV-III [2]; 10 μg/ml,1%
same,Infected cell (%),HTLV-III [2]; 100 μg/ml,0%
same,acute toxicity (LD50),mice; intravenously,"4,500 mg/kg"
same,acute toxicity (LD50),mice; orally,"21,000 mg/kg"
Chondroitin polysulfate,Infected cell (%),HTLV-III [2]; 10 μg/ml,3%
same,Infected cell (%),HTLV-III [2]; 100 μg/ml,1%
same,"anti-AIDS virus activity, in words",HTLV-III [2],particularly strong
same,reverse transcriptase inhibitory activity compared with the natural substances,[5],stronger activity
